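The concentration for 50% growth inhibition is given as GI50. TGI: concentration producing complete growth inhibition.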
What was measured:
Assay in all cases: NCI-60 cell line screen, 384-well format
786-0 renal = tested on: 786-0 renal
A498 renal = tested on: A498 renal
A549 NSCLC = tested on: A549 NSCLC
ACHN renal = tested on: ACHN renal
BT-549 breast = tested on: BT-549 breast
CAKI-1 renal = tested on: CAKI-1 renal
CCRF-CEM leukemia = tested on: CCRF-CEM leukemia
COLO 205 colon = tested on: COLO 205 colon
DU-145 prostate = tested on: DU-145 prostate
EKVX NSCLC = tested on: EKVX NSCLC
HCC-2998 colon = tested on: HCC-2998 colon
HCT-116 colon = tested on: HCT-116 colon
HCT-15 colon = tested on: HCT-15 colon
HL-60(TB) leukemia = tested on: HL-60(TB) leukemia
HOP-62 NSCLC = tested on: HOP-62 NSCLC
HOP-92 NSCLC = tested on: HOP-92 NSCLC
HS 578T breast = tested on: HS 578T breast
HT29 colon = tested on: HT29 colon
IGROV1 ovarian = tested on: IGROV1 ovarian
K-562 leukemia = tested on: K-562 leukemia
KM12 colon = tested on: KM12 colon
M14 melanoma = tested on: M14 melanoma
MALME-3M melanoma = tested on: MALME-3M melanoma
MCF7 breast = tested on: MCF7 breast
MDA-MB-231 breast = tested on: MDA-MB-231 breast
MDA-MB-435 melanoma = tested on: MDA-MB-435 melanoma
MDA-MB-468 breast = tested on: MDA-MB-468 breast
MOLT-4 leukemia = tested on: MOLT-4 leukemia
NCI-H226 lung = tested on: NCI-H226 lung
NCI-H23 lung = tested on: NCI-H23 lung
NCI-H322M lung = tested on: NCI-H322M lung
NCI-H460 NSCLC = tested on: NCI-H460 NSCLC
NCI-H522 lung = tested on: NCI-H522 lung
NCI/ADR-RES ovarian = tested on: NCI/ADR-RES ovarian
OVCAR-3 ovarian = tested on: OVCAR-3 ovarian
OVCAR-4 ovarian = tested on: OVCAR-4 ovarian
OVCAR-5 ovarian = tested on: OVCAR-5 ovarian
OVCAR-8 ovarian = tested on: OVCAR-8 ovarian
PC-3 prostate = tested on: PC-3 prostate
RPMI-8226 leukemia = tested on: RPMI-8226 leukemia
RXF 393 renal = tested on: RXF 393 renal
SF-268 CNS = tested on: SF-268 CNS
SF-295 CNS = tested on: SF-295 CNS
SF-539 CNS = tested on: SF-539 CNS
SK-MEL-2 melanoma = tested on: SK-MEL-2 melanoma
SK-MEL-28 melanoma = tested on: SK-MEL-28 melanoma
SK-MEL-5 melanoma = tested on: SK-MEL-5 melanoma
SK-OV-3 ovarian = tested on: SK-OV-3 ovarian
SN12C renal = tested on: SN12C renal
SNB-19 CNS = tested on: SNB-19 CNS
SNB-75 CNS = tested on: SNB-75 CNS
SR leukemia = tested on: SR leukemia
SW-620 colon = tested on: SW-620 colon
T-47D breast = tested on: T-47D breast
TK-10 renal = tested on: TK-10 renal
U251 glioblastoma = tested on: U251 glioblastoma
UACC-257 melanoma = tested on: UACC-257 melanoma
UACC-62 melanoma = tested on: UACC-62 melanoma

Compound: C[C@@]1(c2ncncc2F)NC(=O)c2cc(-c3cn[nH]c3)ccc21
- GI50 ([…]-0 renal): 16 µM
- TGI (786-0 renal): 35.1 µM
- GI50 (A498 renal): 10.9 µM
- TGI (A498 renal): > 92 µM
- GI50 (A549 NSCLC): 17.3 µM
- TGI (A549 NSCLC): > 100 µM
- GI50 (ACHN renal): 20.9 µM
- TGI (ACHN renal): 69.8 µM
- GI50 (BT-549 breast): 9.62 µM
- TGI (BT-549 breast): 24.2 µM
- GI50 (CAKI-1 renal): 20.1 µM
- TGI (CAKI-1 renal): 63.4 µM
- GI50 (CCRF-CEM leukemia): 2.74 µM
- TGI (CCRF-CEM leukemia): 7.58 µM
- GI50 (COLO 205 colon): 2.01 µM
- TGI (COLO 205 colon): 4.03 µM
- GI50 (DU-145 prostate): 16.2 µM
- TGI (DU-145 prostate): > 100 µM
- GI50 (EKVX NSCLC): 16.7 µM
- TGI (EKVX NSCLC): 42.5 µM
- GI50 (HCC-2998 colon): 12.6 µM
- TGI (HCC-2998 colon): 34.3 µM
- GI50 (HCT-116 colon): 6.88 µM
- TGI (HCT-116 colon): > 100 µM
- GI50 (HCT-15 colon): 15.9 µM
- TGI (HCT-15 colon): > 83.9 µM
- GI50 (HL-60(TB) leukemia): 5.53 µM
- TGI (HL-60(TB) leukemia): 16.7 µM
- GI50 (HOP-62 NSCLC): 16 µM
- TGI (HOP-62 NSCLC): 50.8 µM
- GI50 (HOP-92 NSCLC): 19.4 µM
- TGI (HOP-92 NSCLC): 47.5 µM
- GI50 (HS 578T breast): 18.4 µM
- TGI (HS 578T breast): 35.2 µM
- GI50 (HT29 colon): 5.11 µM
- TGI (HT29 colon): 25.4 µM
- GI50 (IGROV1 ovarian): 20.5 µM
- TGI (IGROV1 ovarian): 56.1 µM
- GI50 (K-562 leukemia): 11.2 µM
- TGI (K-562 leukemia): > 100 µM
- GI50 (KM12 colon): 15.8 µM
- TGI (KM12 colon): 35.1 µM
- GI50 (M14 melanoma): 5.45 µM
- TGI (M14 melanoma): 22 µM
- GI50 (MALME-3M melanoma): 2.77 µM
- TGI (MALME-3M melanoma): 14.4 µM
- GI50 (MCF7 breast): 26.6 µM
- TGI (MCF7 breast): > 83 µM
- GI50 (MDA-MB-231 breast): 14.9 µM
- TGI (MDA-MB-231 breast): 33.1 µM
- GI50 (MDA-MB-435 melanoma): 15.7 µM
- TGI (MDA-MB-435 melanoma): 38.3 µM
- GI50 (MDA-MB-468 breast): 5.03 µM
- TGI (MDA-MB-468 breast): 14.4 µM
- GI50 (MOLT-4 leukemia): 13.8 µM
- TGI (MOLT-4 leukemia): 27.8 µM
- GI50 (NCI-H226 lung): 18.4 µM
- TGI (NCI-H226 lung): 60.7 µM
- GI50 (NCI-H23 lung): 10.4 µM
- TGI (NCI-H23 lung): 25.2 µM
- GI50 (NCI-H322M lung): 22.4 µM
- TGI (NCI-H322M lung): 58.4 µM
- GI50 (NCI-H460 NSCLC): 15.5 µM
- TGI (NCI-H460 NSCLC): 41.6 µM
- GI50 (NCI-H522 lung): 4.74 µM
- TGI (NCI-H522 lung): 38.6 µM
- GI50 (NCI/ADR-RES ovarian): 62.6 µM
- TGI (NCI/ADR-RES ovarian): > 100 µM
- GI50 (OVCAR-3 ovarian): 22.2 µM
- TGI (OVCAR-3 ovarian): 52.4 µM
- GI50 (OVCAR-4 ovarian): 42 µM
- TGI (OVCAR-4 ovarian): 88.8 µM
- GI50 (OVCAR-5 ovarian): 16.3 µM
- TGI (OVCAR-5 ovarian): 50.2 µM
- GI50 (OVCAR-8 ovarian): 25.8 µM
- TGI (OVCAR-8 ovarian): 82.6 µM
- GI50 (PC-3 prostate): 21.6 µM
- TGI (PC-3 prostate): 71.1 µM
- GI50 (RPMI-8226 leukemia): 24 µM
- TGI (RPMI-8226 leukemia): 41.3 µM
- GI50 (RXF 393 renal): 25.3 µM
- TGI (RXF 393 renal): 42.4 µM
- GI50 (SF-268 CNS): 13 µM
- TGI (SF-268 CNS): 31 µM
- GI50 (SF-295 CNS): 28.5 µM
- TGI (SF-295 CNS): > 85 µM
- GI50 (SF-539 CNS): 12.1 µM
- TGI (SF-539 CNS): 29.1 µM
- GI50 (SK-MEL-2 melanoma): 31.8 µM
- TGI (SK-MEL-2 melanoma): 54 µM
- GI50 (SK-MEL-28 melanoma): 11.8 µM
- TGI (SK-MEL-28 melanoma): 27.6 µM
- GI50 (SK-MEL-5 melanoma): 13 µM
- TGI (SK-MEL-5 melanoma): 31 µM
- GI50 (SK-OV-3 ovarian): 28.9 µM
- TGI (SK-OV-3 ovarian): > 71.3 µM
- GI50 (SN12C renal): 17.3 µM
- TGI (SN12C renal): 49.9 µM
- GI50 (SNB-19 CNS): 28.8 µM
- TGI (SNB-19 CNS): > 100 µM
- GI50 (SNB-75 CNS): 14.1 µM
- TGI (SNB-75 CNS): 28.4 µM
- GI50 (SR leukemia): 2.56 µM
- TGI (SR leukemia): 5.45 µM
- GI50 (SW-620 colon): 2.03 µM
- TGI (SW-620 colon): 5.93 µM
- GI50 (T-47D breast): 30.9 µM
- TGI (T-47D breast): 82.1 µM
- GI50 (TK-10 renal): 15.8 µM
- TGI (TK-10 renal): 36 µM
- GI50 (U251 glioblastoma): 11.1 µM
- TGI (U251 glioblastoma): 48.4 µM
- GI50 (UACC-257 melanoma): 17.8 µM
- TGI (UACC-257 melanoma): 44.9 µM
- GI50 (UACC-62 melanoma): 12.2 µM
- TGI (UACC-62 melanoma): 28.8 µM

Reference: PubChem BioAssay (NCI)
